Source: patent publication US11541028B2, “Peptide pharmaceuticals for treatment of NASH and other disorders” (Mederis Diabetes LLC, priority 2018, dated 2023)
Square brackets hold non-standard residues; d marks the D form. Peptide text beside a SMILES is read from it. * marks the point of attachment. GlcA(β-D,1-O-dodecyl) = CCCCCCCCCCCCO[C@@H]1O[C@H](C(=O)*)[C@@H](O)[C@H](O)[C@H]1O; αMeF = C[C@](N)(Cc1ccccc1)C(=O)O; Ac4c = NC1(C(=O)O)CCC1; Aib = CC(C)(N)C(=O)O

Experiments:
Glucagon R = target: T1, Glucagon R (Homo sapiens, UniProt P47871); assay: Cerep cellular assay, stimulation of cAMP levels, glucagon (human, cloned into CHO cells); assay type: cell-based; conditions: human receptor in CHO cells (Cerep)
T1 construct: host or cells: CHO cells
T1 sequence (P47871 26-477): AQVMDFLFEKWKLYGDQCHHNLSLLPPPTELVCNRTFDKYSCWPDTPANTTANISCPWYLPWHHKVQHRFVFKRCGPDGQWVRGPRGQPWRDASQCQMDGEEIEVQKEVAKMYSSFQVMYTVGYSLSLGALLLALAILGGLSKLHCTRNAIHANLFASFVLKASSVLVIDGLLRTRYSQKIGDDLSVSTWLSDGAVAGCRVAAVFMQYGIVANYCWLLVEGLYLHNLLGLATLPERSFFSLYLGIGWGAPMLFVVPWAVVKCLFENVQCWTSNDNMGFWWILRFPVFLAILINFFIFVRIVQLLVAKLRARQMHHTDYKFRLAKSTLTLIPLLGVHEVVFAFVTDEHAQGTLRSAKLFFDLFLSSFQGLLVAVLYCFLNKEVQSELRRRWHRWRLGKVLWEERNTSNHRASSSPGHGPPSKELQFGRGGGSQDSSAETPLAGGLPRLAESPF
Protocol: (§1) Compounds were weighed precisely in an amount of about 1 mg and assayed in standard cellular assays (Cerep SA). The readout was the amount of cAMP generated in the cells treated with the test compounds, in either agonist or antagonist mode. […] The assays are described in Chicchi et al., J. Biol. Chem., 272:7765-7769 (1997) and Runge et al., Br. J. Pharmacol., 138:787-794 (2003).

[1] = incubation in human plasma at 30° C, in 4 hours
GLP-1 R = target: T2, GLP-1 R (Mus musculus, UniProt O35659); assay: Cerep cellular assay, stimulation of cAMP levels, GLP-1 (murine cell line); assay type: cell-based; design: key: §means superagonist; n.c. means EC50 not calculable; conditions: n.c. = EC50 not calculable
T2 construct: GLP-1 (murine cell line) cellular assays
T2 sequence (O35659 22-463): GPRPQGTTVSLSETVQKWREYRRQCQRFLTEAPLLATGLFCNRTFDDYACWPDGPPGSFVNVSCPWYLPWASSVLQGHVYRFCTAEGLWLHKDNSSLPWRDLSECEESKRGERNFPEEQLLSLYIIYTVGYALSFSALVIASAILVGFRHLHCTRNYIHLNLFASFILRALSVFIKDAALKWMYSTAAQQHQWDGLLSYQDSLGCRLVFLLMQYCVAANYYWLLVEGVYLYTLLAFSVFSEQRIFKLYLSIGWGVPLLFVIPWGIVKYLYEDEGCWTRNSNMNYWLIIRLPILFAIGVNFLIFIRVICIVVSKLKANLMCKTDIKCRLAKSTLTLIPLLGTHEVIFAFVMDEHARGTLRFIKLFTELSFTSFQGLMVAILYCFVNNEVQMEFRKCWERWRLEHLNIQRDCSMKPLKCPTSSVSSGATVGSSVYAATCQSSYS
Protocol: as §1

For `CCCCCCCCCCCCO[C@@H]1O[C@H](C(=O)NCCCC[C@H](NC(=O)C(C)(C)NC(=O)[C@H](CC(=O)O)NC(=O)[C@H](CC(C)C)NC(=O)[C@H](Cc2ccc(O)cc2)NC(=O)[C@H](CCCCN)NC(=O)[C@H](CO)NC(=O)[C@H](Cc2ccc(O)cc2)NC(=O)[C@H](CC(=O)O)NC(=O)[C@H](CO)NC(=O)[C@@H](NC(=O)[C@](C)(Cc2ccccc2)NC(=O)[C@@H](NC(=O)CNC(=O)[C@H](CCC(N)=O)NC(=O)C(C)(C)NC(=O)[C@@H](N)Cc2c[nH]cn2)[C@@H](C)O)[C@@H](C)O)C(N)=O)[C@@H](O)[C@H](O)[C@H]1O` [EU-A391] (H-H[Aib]QGT[αMeF]TSDYSKYLD[Aib]K(GlcA(β-D,1-O-dodecyl))-NH2; N-terminus assumed), the GCGR cellular response (Glucagon R) was “did not change”.
For `CC[C@H](C)[C@H](NC(=O)[C@H](Cc1ccccc1)NC(=O)[C@H](CCC(=O)O)NC(=O)[C@H](CCCCN)NC(=O)[C@H](C)NC(=O)[C@H](C)NC(=O)[C@H](CCC(N)=O)NC(=O)CNC(=O)[C@H](CCC(=O)O)NC(=O)[C@H](CC(C)C)NC(=O)[C@H](Cc1ccc(O)cc1)NC(=O)[C@H](CO)NC(=O)[C@H](CO)NC(=O)[C@@H](NC(=O)[C@H](CC(=O)O)NC(=O)[C@H](CO)NC(=O)[C@@H](NC(=O)[C@H](Cc1ccccc1)NC(=O)[C@@H](NC(=O)CNC(=O)[C@H](CCC(=O)O)NC(=O)[C@H](C)NC(=O)[C@@H](N)Cc1c[nH]cn1)[C@@H](C)O)[C@@H](C)O)C(C)C)C(=O)N[C@@H](C)C(=O)N[C@@H](Cc1c[nH]c2ccccc12)C(=O)N[C@@H](CC(C)C)C(=O)N[C@H](C(=O)N[C@@H](CCCCN)C(=O)NCC(=O)N[C@@H](CCCNC(=N)N)C(N)=O)C(C)C` [GLP-1(7-36)], the “cleavage of compound in human plasma (compound signal versus time)” value [1] was “essentially complete cleavage”.
In the case of `CCCCCCCCCCCCO[C@@H]1O[C@H](C(=O)NCCCC[C@H](NC(=O)[C@H](CC(=O)O)NC(=O)[C@H](CC(C)C)NC(=O)[C@H](Cc2ccc(O)cc2)NC(=O)[C@H](CCCCN)NC(=O)[C@H](CO)NC(=O)[C@H](Cc2ccc(O)cc2)NC(=O)[C@H](CC(=O)O)NC(=O)[C@H](CO)NC(=O)[C@@H](NC(=O)[C@H](Cc2ccccc2)NC(=O)[C@@H](NC(=O)CNC(=O)[C@H](CCC(N)=O)NC(=O)C(C)(C)NC(=O)[C@@H](N)Cc2c[nH]cn2)[C@@H](C)O)[C@@H](C)O)C(=O)NC2(C(N)=O)CCC2)[C@@H](O)[C@H](O)[C@H]1O` [EU-A522] (H-H[Aib]QGTFTSDYSKYLDK(GlcA(β-D,1-O-dodecyl))[Ac4c]-NH2; N-terminus assumed), the “EC50 GLP-1 R (nM)” value (GLP-1 R) is reported as “n.c”.
In the case of `CCCCCCCCCCCCCCO[C@@H]1O[C@H](C(=O)NCCCC[C@@H]2NC(=O)[C@H](CCC(N)=O)NC(=O)[C@@H](NC(=O)[C@H](CC(=O)O)NC(=O)[C@H](CC(C)C)NC(=O)[C@H](Cc3ccc(O)cc3)NC(=O)[C@H](CCCCN)NC(=O)[C@H](CO)NC(=O)[C@H](Cc3ccc(O)cc3)NC(=O)[C@H](CC(=O)O)NC(=O)[C@H](CO)NC(=O)[C@@H](NC(=O)[C@H](Cc3ccccc3)NC(=O)[C@@H](NC(=O)CNC(=O)[C@H](CCC(N)=O)NC(=O)C(C)(C)NC(=O)[C@@H](N)Cc3c[nH]cn3)[C@@H](C)O)[C@@H](C)O)CCC(=O)NCCCC[C@@H](C(N)=O)NC(=O)[C@H](C)NC2=O)[C@@H](O)[C@H](O)[C@H]1O` [EU-A540], the “EC50 GLP-1 R (nM)” value (GLP-1 R) is reported as “n.c”.
